Experimental data published in patent publication US8822513B2, “Compounds for treatment of cancer” (GTX, Inc., priority 2010, dated 2014).
Like-named read-outs stand apart in the source and are kept apart here.

Experiments:
[1] = tested on: PC-3 cells; assay: Apoptosis detection by ELISA (cytoplasmic DNA-histone complexes), PC-3; assay type: cell-based, human; settings: PC-3 and A375 cells, 24 h
Source text: The levels of DNA-histone complexes were used to represent cell apoptosis.
Quantification of the enrichment of mono- and oligonucleosomes in the cytoplasm was used to determine the ability of the compounds to induce apoptosis (cell death detection ELISA PLUS, Roche, Germany) following the manufacturer's instructions.

[2] = tested on: PC-3 xenografts; assay: In vivo efficacy, PC-3 prostate tumor xenograft in nude mice; settings: 50 mg/kg i.p.
[3] = tested on: Bovine brain tubulin; assay: In vitro tubulin polymerization assay (bovine brain tubulin); assay type: biochemical
Description: The spectrophotometer was maintained at 37° C. for tubulin polymerization.

[4] = tested on: three melanoma cell lines and four human prostate cancer cell lines; assay: SRB cytotoxicity, melanoma and prostate cancer cell lines (ranges and averages over the panel); assay type: cell-based; settings: Homo sapiens; text on Tables 2, 3, 12, 21; read-out: IC50 (range over cell lines)
[5] = tested on: NCI/ADR-RES cells; assay: SRB cytotoxicity assay, NCI/ADR-RES (P-gp over-expressing); assay type: cell-based; settings: Homo sapiens
[6] = Aqueous solubility, Multiscreen Solubility Filter Plate, PBS pH 7.4; assay type: physicochemical; settings: HCl salt, vs 1h
[7] = tested on: prostate cancer cell lines (LNCaP, PC-3, DU-145, PPC-1); assay: SRB cytotoxicity, prostate cancer cell lines (panel statements); settings: Homo sapiens, read-out: IC50 against prostate cancer cells
[8] = Pharmacokinetic study in ICR mice; settings: 15 mg/kg i.v.
[9] = Metabolic stability in mouse liver microsomes; assay type: in vitro ADME; settings: Table 20
[10] = Metabolic stability in rat liver microsomes; assay type: in vitro ADME; settings: Table 20
[11] = Metabolic stability in dog liver microsomes; assay type: in vitro ADME; settings: Table 20
[12] = Metabolic stability in human liver microsomes; settings: for Half life in Human liver microsome: Table 20
[13] = Metabolic stability in monkey liver microsomes; assay type: in vitro ADME; settings: Table 20
[14] = Rotarod test (in vivo neurotoxicity); design: species or system mouse; settings: ICR mice; 1h 5 or 15 mg/kg, vinblastine 0.5 mg/kg, i.p. daily
Description: ICR mice received training three times a day for two days to enable them to stay on the rotating rod for >120 seconds at 12 rpm. Mice were then randomized by the length of time that they could stay on the rotating rod and divided into 7-8 mice per group. […] The rotarod test was performed twice a week. […] The rod speed was increased from […] to 40 rpm over a period of 5 min. Performance was measured as the length of time that a mouse could stay on the rotating rod.

[15] = tested on: tubulin (colchicine, vinblastine, paclitaxel binding sites); assay: MS competitive binding assay
Source text: Each reaction was run in triplicate.

[16] = tested on: A375 melanoma cells; assay: SRB cytotoxicity assay, A375; assay type: cell-based, human; settings: read-out: IC50 ± SEM A375
[17] = tested on: B16-F1 melanoma cells; assay: SRB cytotoxicity assay, B16-F1; assay type: cell-based, mouse
[18] = tested on: WM-164 melanoma cells; assay: SRB cytotoxicity assay, WM-164; assay type: cell-based, human; settings: Table 12; 48 h; read-out: IC50 ± SEM WM164
[19] = tested on: PC-3 cells
Source text: (§1) Cells were stained with SRB solution.
Cells were stained with sulphorhodamine B (SRB) solution.

[20] = tested on: LNCaP cells; assay: SRB cytotoxicity assay, LNCaP; assay type: cell-based, human; settings: read-out: IC50 ± SEM LNCaP
Source text: as §1

[21] = tested on: DU 145 cells; assay: SRB cytotoxicity assay, DU 145; assay type: cell-based, human; settings: Table 12; 96 h; read-out: IC50 ± SEM Du 145
Source text: as §1

[22] = tested on: PPC-1 cells
Source text: as §1

[23] = tested on: B16-F1 melanoma tumors; assay: In vivo efficacy, B16-F1 melanoma in C57/BL mice; design: species or system mouse; settings: 60 mg/kg i.p. daily, 14 days
Description: Female C57/BL mice, age 4-6 weeks, were purchased from Harlan Laboratories (Harlan Laboratories Inc., Indianapolis, Ind.). The animal housing met the Association for Assessment and Accreditation and Laboratory Animal Care specifications. All of the procedures were conducted in accordance with guidelines of our Institutional Animal Care and Use Committee.
Tumor volume was expressed in cubic millimeters.

[24] = tested on: A375 melanoma xenografts; assay: In vivo efficacy, A375 melanoma xenograft in nude mice (SMART compounds); design: species or system mouse; settings: 15 mg/kg i.p.
[25] = ICR mice, 4 consecutive days i.p.
[26] = Pharmacokinetic study in Sprague-Dawley rats; settings: rat
[27] = tested on: PC-3/TxR cells; assay: SRB cytotoxicity assay, paclitaxel-resistant PC-3/TxR; settings: Table 15; data in parentheses; IC50 values in PC-3 and PC-3/TxR compared
[28] = tested on: PC-3/TxR cells
[29] = Table 12, 48 h, read-out: IC50 ± SEM B16-F1

Structure (SMILES): COc1cc(C(=O)c2csc(-c3ccc(O)cc3)n2)cc(OC)c1OC [2l, (2-(4-Hydroxyphenyl)thiazol-4-yl)(3,4,5-trimethoxyphenyl)methanone]
- concentration inducing apoptosis [1]: greater than or equal to 200 nM
- % T/C [2]: 34%
- inhibition of tubulin polymerization ([3]; 10 μM (Example 22)): 55%

Structure (SMILES): COc1cc(C(=O)c2csc(-c3ccc(CN)cc3)n2)cc(OC)c1OC.Cl [2r, (2-(4-(Aminomethyl)phenyl)thiazol-4-yl)(3,4,5-trimethoxyphenyl)methanone hydrochloride]
- IC50 [4]: 0.013 to 0.08 µM
- IC50 ([5]; Table 5A, P-gp over-expressed, read-out: IC50 NCI/ADR-RES): 0.011 ± 0.002 µM
- increase of solubility [6]: over 35 fold

Structure (SMILES): COc1cc(C(=O)c2cccc(-c3ccccc3)n2)cc(OC)c1OC [1c, (6-Phenylpyridin-2-yl)(3,4,5-trimethoxyphenyl)methanone]
- IC50 [7]: 0.012 to 0.035 µM

Structure (SMILES): O=C(c1ccc2[nH]ccc2c1)c1csc(-c2cc3ccccc3[nH]2)n1 [compound 21, (2-(1H-indol-2-yl)thiazol-4-yl)(1H-indol-5-yl)methanone]
- IC50 [4]: 0.076 to 0.116 µM
- times higher Vss than 1h and 2k ([8]; ICR mice): 2-3 times

Structure (SMILES): Fc1ccc(-c2nccc3ccc(-c4ccc5[nH]ccc5c4)cc23)cc1 [6c, 1-(4-Fluoro-phenyl)-7-(1H-indol-5-yl)-isoquinoline]
- Half life in Mouse liver microsome [9]: 13 min
- Half life in Rat liver microsome [10]: 14 min
- Half life in Dog liver microsome [11]: 29 min
- Half life in Human liver microsome [12]: 47 min
- Half life in Monkey liver microsome [13]: 9 min

Structure (SMILES): COc1cc(C(=O)c2csc(-c3ccccc3)n2)cc(OC)c1OC [1h, (2-Phenyl-thiazol-4-yl)-(3,4,5-trimethoxy-phenyl)-methanone]
- time on the rotating rod vs vehicle group [14]: no significant difference
- Half-life in HLM (Phase I + II) ([12]; Table 16B, Phase I + II (UDP-glucuronic acid present)): 17 min
- Half life in Human liver microsome [12]: 17 min
- competition with colchicine-tubulin binding [15]: specifically competed with colchicine binding to tubulin
- inhibition of tubulin polymerization ([3]; 10 μM (Example 22)): 90%
- inhibition of tubulin polymerization ([3]; 10 μM, after 20 min, vs vehicle): 47%

Structure (SMILES): COc1cc(-c2nccc3ccc(-c4ccc5[nH]ccc5c4)cc23)cc(OC)c1OC [6a]
- Half life in Mouse liver microsome [9]: 3.43 min
- Half life in Rat liver microsome [10]: 12 min
- Half life in Dog liver microsome [11]: 13 min
- Half life in Human liver microsome [12]: 32 min
- Half life in Monkey liver microsome [13]: 16 min

Structure (SMILES): COc1cc(C(=O)c2c[nH]c(-c3ccc(Cl)cc3)n2)cc(OC)c1OC [12fa, (2-(4-chlorophenyl)-1H-imidazol-4-yl)(3,4,5-trimethoxyphenyl)methanone]
- IC50 ([5]; Table 12, read-out: IC50 ± SEM NCl/ADR-RES): 0.019 µM
- Half-life in HLM (Phase I) ([12]; Table 16B, Phase I): 44 min

Structure (SMILES): O=C(c1cc(O)c(O)c(O)c1)c1c[nH]c(-c2ccc(O)c(O)c2)n1 [13ha]
- IC50 ([16]; Table 12, 48 h): > 10 µM
- IC50 [17, 29]: > 10 µM
- IC50 [18]: > 10 µM

Structure (SMILES): O=C(c1ccc(F)cc1)c1c[nH]c(-c2ccc(O)cc2)n1 [12kb]
- IC50 ([16]; Table 12, 48 h): 10 µM
- IC50 [17, 29]: > 10 µM
- IC50 [18]: > 10 µM
- IC50 ([19]; read-out: IC50 ± SEM PC-3, Table 12, 96 h): > 10 µM
- IC50 ([20]; Table 12, 96 h): > 10 µM
- IC50 [21]: > 10 µM
- IC50 ([22]; read-out: IC50 ± SEM PPC-1, Table 12, 96 h): > 10 µM

Structure (SMILES): CC[C@]1(O)C[C@@H]2CN(CCc3c([nH]c4ccccc34)[C@@](C(=O)OC)(c3cc4c(cc3OC)N(C)[C@H]3[C@@](O)(C(=O)OC)[C@H](OC(C)=O)[C@]5(CC)C=CCN6CC[C@]43[C@@H]65)C2)C1 [Vinblastine, vinblastine, reference compound]
- time on the rotating rod vs vehicle group [14]: gradually reduced the time
- competition with colchicine-tubulin binding [15]: did not inhibit the colchicine-tubulin binding

Structure (SMILES): CN(C)/N=N/c1[nH]cnc1C(N)=O [DTIC]
- tumor volume reduction [23]: 51%

Structure (SMILES): c1cc2ccc(-c3ccc4[nH]ccc4c3)cc2c(-c2ccc3[nH]ccc3c2)n1 [6b, 1,7-Bis-(1H-indol-5-yl)-isoquinoline]
- Half life in Mouse liver microsome [9]: 10 min
- Half life in Rat liver microsome [10]: 9 min
- Half life in Dog liver microsome [11]: 30 min
- Half life in Human liver microsome [12]: 40 min
- Half life in Monkey liver microsome [13]: 13 min

Structure (SMILES): COc1cc(C(=O)c2csc(-c3ccc(CC(N)=O)cc3)n2)cc(OC)c1OC [2q]
- IC50 ([16]; Table 6): > 20 µM
- IC50 ([20]; Table 6): > 10 µM

Structure (SMILES): COc1cc(C(=O)c2csc(-c3ccc(F)cc3)n2)cc(OC)c1OC [2k]
- % T/C [24]: 29%
- inhibition of tubulin polymerization ([3]; 10 μM (Example 22)): 90%
- dose not causing greater than 10% loss of body weight [25]: ≤ 15 mg/kg

Structure (SMILES): COc1cc(C(=O)c2csc(Nc3ccc(F)cc3)n2)cc(OC)c1OC.Cl [5Hc, (2-(p-Fluorophenylamino)thiazol-4-yl)(3,4,5-trimethoxyphenyl)methanone hydrochloride salt]
- increased exposure (AUC) by the oral route compared to 1h [26]: more than 4.3 fold

Structure (SMILES): COc1cc(C(=O)c2cn(S(=O)(=O)c3ccccc3)c(-c3cn(S(=O)(=O)c4ccccc4)c4ccccc34)n2)cc(OC)c1OC [17yaa, (1-(phenylsulfonyl)-2-(1-(phenylsulfonyl)-1H-indol-3-yl)-1H-imidazol-4-yl)(3,4,5-trimethoxyphenyl)methanone]
- IC50 ([17]; Table 6A, read-out: IC50 B16-F1): 0.538 µM
- Resistance factor PC-3/TxR vs PC-3 [27]: 0.4
- IC50 [19]: 0.0052 ± 0.0002 µM
- IC50 [28]: 0.0021 ± 0.0001 µM
- IC50 [22]: 0.021 ± 0.0001 µM

Structure (SMILES): COc1cc(C(=O)c2csc(-c3ccc(F)cc3)n2)cc(OC)c1OC [SMART-F]
- AUC ([8]; mice): 2100 ng·h/mL
- T-C ([24]; Melanoma (A375) xenograft): 11 days
